Test results: publication PMC3063124 (The Journal of neuroscience : the official journal of the …, 2011)
Where two headings read alike, the source gives them in different places.

Assays:
Format in all cases: cell-based
GluN1/GluN2D [1] = target: GluN1/GluN2D (Rattus norvegicus, UniProt Q62645)
GluN1/GluN2D [2] = target: GluN1/GluN2D (Rattus norvegicus, UniProt P35439+Q62645)
GluN1/GluN2D Y723A [3] = target: GluN1/GluN2D Y723A (Rattus norvegicus, UniProt Q62645, Y723A); experiment: Two-electrode voltage-clamp recordings, mutant receptor in Xenopus oocytes
Sequence of GluN1/GluN2D Y723A (Rattus norvegicus, UniProt Q62645, Y723A) (Q62645 28-1323 Y723A, other chains not shown): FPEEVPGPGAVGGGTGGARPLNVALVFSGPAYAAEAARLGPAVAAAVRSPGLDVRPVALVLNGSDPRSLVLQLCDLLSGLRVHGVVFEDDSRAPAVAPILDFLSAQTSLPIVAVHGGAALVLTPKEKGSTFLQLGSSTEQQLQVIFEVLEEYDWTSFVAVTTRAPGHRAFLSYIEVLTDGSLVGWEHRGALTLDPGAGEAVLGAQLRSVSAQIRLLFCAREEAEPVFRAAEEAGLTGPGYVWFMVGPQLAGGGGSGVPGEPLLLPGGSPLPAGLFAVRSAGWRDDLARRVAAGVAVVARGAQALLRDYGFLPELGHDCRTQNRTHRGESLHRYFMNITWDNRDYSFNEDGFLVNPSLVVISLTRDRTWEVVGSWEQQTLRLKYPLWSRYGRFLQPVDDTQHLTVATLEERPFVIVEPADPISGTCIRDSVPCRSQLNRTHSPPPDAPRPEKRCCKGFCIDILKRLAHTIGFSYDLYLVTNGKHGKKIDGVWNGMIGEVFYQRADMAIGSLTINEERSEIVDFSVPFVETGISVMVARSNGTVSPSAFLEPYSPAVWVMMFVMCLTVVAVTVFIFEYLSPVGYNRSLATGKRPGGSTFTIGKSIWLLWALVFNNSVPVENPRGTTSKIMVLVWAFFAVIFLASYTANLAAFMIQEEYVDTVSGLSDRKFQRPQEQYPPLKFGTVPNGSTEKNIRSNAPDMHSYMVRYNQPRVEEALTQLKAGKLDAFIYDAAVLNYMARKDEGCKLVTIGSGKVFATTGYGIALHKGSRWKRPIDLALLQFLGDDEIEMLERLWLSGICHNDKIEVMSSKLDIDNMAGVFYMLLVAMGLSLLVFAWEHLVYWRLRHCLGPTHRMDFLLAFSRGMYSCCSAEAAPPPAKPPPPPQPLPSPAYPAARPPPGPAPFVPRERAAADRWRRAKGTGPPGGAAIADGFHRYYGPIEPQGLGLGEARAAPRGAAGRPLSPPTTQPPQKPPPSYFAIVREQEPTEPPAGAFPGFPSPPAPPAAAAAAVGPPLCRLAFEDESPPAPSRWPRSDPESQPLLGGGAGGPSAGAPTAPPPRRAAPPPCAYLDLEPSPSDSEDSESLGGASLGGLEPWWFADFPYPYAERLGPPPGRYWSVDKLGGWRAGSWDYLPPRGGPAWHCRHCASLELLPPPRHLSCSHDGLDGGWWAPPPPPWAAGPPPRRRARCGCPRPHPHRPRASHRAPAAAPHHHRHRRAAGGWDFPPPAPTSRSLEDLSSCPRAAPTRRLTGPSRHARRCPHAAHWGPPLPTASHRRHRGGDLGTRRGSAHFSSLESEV

GluN1/GluN2D Y723A [4] = target: GluN1/GluN2D Y723A (Rattus norvegicus, UniProt P35439+Q62645, Y723A); experiment: as above
Sequence of GluN1/GluN2D Y723A (Rattus norvegicus, UniProt P35439+Q62645, Y723A) (Q62645 28-1323 Y723A, other chains not shown): as above

GluN1/GluN2D Y729A [5] = target: GluN1/GluN2D Y729A (Rattus norvegicus, UniProt P35439+Q62645, Y729A); experiment: as above
Sequence of GluN1/GluN2D Y729A (Rattus norvegicus, UniProt P35439+Q62645, Y729A) (Q62645 28-1323 Y729A, other chains not shown): as the sequence (Q62645 28-1323 Y723A, other chains not shown) above, with A696Y, Y702A counted along it

GluN1/GluN2D Y729A [6] = target: GluN1/GluN2D Y729A (Rattus norvegicus, UniProt Q62645, Y729A); experiment: as above
Sequence of GluN1/GluN2D Y729A (Rattus norvegicus, UniProt Q62645, Y729A) (Q62645 28-1323 Y729A, other chains not shown): as the sequence (Q62645 28-1323 Y723A, other chains not shown) above, with A696Y, Y702A counted along it

GluN1/GluN2D K779Y = GluN1/GluN2D K779Y (Rattus norvegicus, UniProt Q62645, K779Y); experiment: as above
Sequence of GluN1/GluN2D K779Y (Q62645 28-1323 K779Y, other chains not shown): as the sequence (Q62645 28-1323 Y723A, other chains not shown) above, with A696Y, K752Y counted along it

[7] = 1 μM QNZ46 plus glycine continuously present, after removal of glutamate
[8] = 3 μM QNZ46 plus glycine continuously present, after removal of glutamate

Sequence of GluN1/GluN2D (Rattus norvegicus, UniProt P35439+Q62645) (Q62645 28-1323, other chains not shown): as the sequence (Q62645 28-1323 Y723A, other chains not shown) above, with A696Y counted along it
Sequence of GluN1/GluN2D (Rattus norvegicus, UniProt Q62645) (Q62645 28-1323, other chains not shown): as the sequence (Q62645 28-1323 Y723A, other chains not shown) above, with A696Y counted along it

With `COc1ccc2nc(/C=C/c3cccc([N+](=O)[O-])c3)n(-c3ccc(C(=O)O)cc3)c(=O)c2c1` [QNZ46, (E)-4-(6-methoxy-2-(3-nitrostyryl)-4-oxoquinazolin-3(4H)-yl)-benzoic acid] the τinhibition (GluN1/GluN2D [1]; 1 μM QNZ46 applied after activation) was 356 ± 6 ms, the Deactivation % slow (GluN1/GluN2D [1]; 1 μM QNZ46 plus glycine continuously present) was 78% and the “Deactivation τfast” value (GluN1/GluN2D [1]; [7]) was 1210 ± 150 ms. The “Deactivation τslow” value (GluN1/GluN2D [1]; [7]) was 5640 ± 160 ms, the τinhibition (GluN1/GluN2D [1]; 1 μM QNZ46 present before, during, and after activation) was 344 ± 6 ms and the τinhibition (GluN1/GluN2D [1]; 3 μM QNZ46 applied after activation) was 268 ± 11 ms. For the same compound, the Deactivation % slow (GluN1/GluN2D [1]; 3 μM QNZ46 plus glycine continuously present) was 79%, the “Deactivation τfast” value (GluN1/GluN2D [1]; [8]) was 1340 ± 50 ms and the “Deactivation τslow” value (GluN1/GluN2D [1]; [8]) was 7100 ± 180 ms. For the same compound, the τinhibition (GluN1/GluN2D [1]; 3 μM QNZ46 present before, during, and after activation) was 244 ± 5 ms, the voltage-dependence of inhibition (GluN1/GluN2D [1]; 10 μM QNZ46, 1000 μM glutamate plus 100 μM glycine) was “independent of membrane holding potential” and the τinhibition (GluN1/GluN2D [1]; 10 μM QNZ46 applied after activation) was 145 ± 13 ms. For the same compound, the Deactivation % slow (GluN1/GluN2D [1]; 10 μM QNZ46 plus glycine continuously present) was 100%, the “Deactivation τslow” value (GluN1/GluN2D [1]; 10 μM QNZ46 plus glycine continuously present, mono-exponential fit) was 8150 ± 330 ms and the τinhibition (GluN1/GluN2D [1]; 10 μM QNZ46 present before, during, and after activation) was 116 ± 3 ms. The τinhibition (GluN1/GluN2D [1]; 20 μM QNZ46 applied after activation) was 91 ± 11 ms, the Deactivation % slow (GluN1/GluN2D [1]; 20 μM QNZ46 plus glycine continuously present) was 100% and the “Deactivation τslow” value (GluN1/GluN2D [1]; 20 μM QNZ46 plus glycine continuously present, mono-exponential fit) was 10130 ± 280 ms. The τinhibition (GluN1/GluN2D [1]; 20 μM QNZ46 present before, during, and after activation) was 74 ± 2 ms, the “increase in QNZ46 potency by glutamate binding to GluN2D” value (GluN1/GluN2D [1]; IC50 with glutamate vs glycine alone or no agonists) was greater than 10 fold and the “τoff for QNZ46” value (GluN1/GluN2D [1]; continuous presence of glutamate) was 460 ms. The “dependence of inhibition on agonist concentration” value (GluN1/GluN2D [1]; increasing concentrations of glutamate or glycine) was “independent of agonist concentration”, the “increase of time constants for deactivation (τweighted) in the presence of QNZ46” value (GluN1/GluN2D [1]; up to, QNZ46 1 – 20 μM, after removal of glutamate) was ~ 2 fold and the Kd (GluN1/GluN2D [2]) was 4.9 µM. The inhibition at 1 µM (GluN1/GluN2D [2]; HEK293, read-out: % inhibition of steady-state responses, 1 μM QNZ46 applied after activation) was 23 ± 1%, the inhibition at 1 µM (GluN1/GluN2D [2]; HEK293, read-out: % inhibition of steady-state responses, 1 μM QNZ46 present before, during, and after activation) was 28 ± 3% and the inhibition at 3 µM (GluN1/GluN2D [2]; HEK293, read-out: % inhibition of steady-state responses, 3 μM QNZ46 applied after activation) was 50 ± 2%. It also gave an inhibition at 3 µM (GluN1/GluN2D [2]; HEK293, read-out: % inhibition of steady-state responses, 3 μM QNZ46 present before, during, and after activation) of 46 ± 3%, an inhibition at 10 µM (GluN1/GluN2D [2]; HEK293, read-out: % inhibition of steady-state responses, 10 μM QNZ46 applied after activation) of 75 ± 1% and an inhibition at 10 µM (GluN1/GluN2D [2]; HEK293, read-out: % inhibition of steady-state responses, 10 μM QNZ46 present before, during, and after activation) of 73 ± 2%. The inhibition at 20 µM (GluN1/GluN2D [2]; HEK293, read-out: % inhibition of steady-state responses, 20 μM QNZ46 applied after activation) was 88 ± 1%, the inhibition at 20 µM (GluN1/GluN2D [2]; HEK293, read-out: % inhibition of steady-state responses, 20 μM QNZ46 present before, during, and after activation) was 85 ± 2% and the inhibition at 10 µM (GluN1/GluN2D [2]; HEK293, read-out: inhibition of the instantaneous current (pre-inhibition), 10 μM QNZ46 alone, nominal absence of glutamate plus glycine) was roughly 11%. For the same compound, the “nH (Hill slope)” value (GluN1/GluN2D Y723A [3]) was 1.3, the “Relative IC50 (IC50 2X / IC50 2D)” value (GluN1/GluN2D Y723A [3]; fold shift relative to GluN2D) was 1.9 and the IC50 (GluN1/GluN2D Y723A [4]) was 7.6 ± 0.6 µM. The IC50 (GluN1/GluN2D Y729A [5]) was 0.7 ± 0.04 µM, the “nH (Hill slope)” value (GluN1/GluN2D Y729A [6]) was 1.0 and the “Relative IC50 (IC50 2X / IC50 2D)” value (GluN1/GluN2D Y729A [6]; fold shift relative to GluN2D) was 0.2. For the same compound, the “nH (Hill slope)” value (GluN1/GluN2D K779Y) was 1.2.
